What was measured:
[1] = system: adjuvant-induced arthritis in rats; test: Established Adjuvant-Induced Arthritis in Rats; assay type: in vivo, Lewis (Wistar) male rats; settings: rat; for ED50: oral gavage once daily for 7 days (days 14-20), paw volume of uninjected left hind paw on day 21, ED50 % estimated by inspection, read-out: Adjuvant Arthritic ED 50; for Percent decrease from control mean paw volume (in parentheses after the ED50 bound): oral once daily for 7 days, presumably at the bounding dose
[2] = system: phenylquinone writhing in mice; test: Phenylquinone writhing test; assay type: in vivo, female white mice; settings: Mus musculus, 0.5 h; fasted female mice, oral; phenylquinone i.p. 24 minutes later; observed for 10 minutes from 30 minutes after dosing; read-out: Analgesic Phenylquinone Writhing ED50
Description: PHENYLQUINONE WRITHING TEST
The phenylquinone writhing test, modified from Siegmund, et al., Proc. Soc. Exp. Biol. Med., 95, 729 (1957), was employed. A test compound suspended in 1% methylcellulose was given orally to fasted (17-21 hours) female white mice, 5-20 animals per double blind test. Aqueous (0.01% phenyl-p-benzoquinone) phenylquinone was injected intraperitoneally 24 minutes later using 0.20 ml per mouse. […] The effective analgesic dose for 50% of the mice (ED50) was calculated by the moving average method of Thompson, W. R., Bact. Rev., 11, 115-145 (1947).

Compound | ED50 [1] [mg/kg] | ED50 [2] [mg/kg] | Percent decrease from control mean paw volume (in parentheses after the ED50 bound) ([1]; 25 mg/kg) [%] | Percent decrease from control mean paw volume (in parentheses after the ED50 bound) ([1]; 9 mg/kg) [%]
NC(c1cc(-c2ccc(F)cc2)c(-c2ccc(F)cc2)[nH]1)(C(F)(F)F)C(F)(F)Cl (stereo not shown) [Example 15] | 0.7 | – | – | –
CNC(c1cc(-c2ccc(F)cc2)c(-c2ccc(F)cc2)n1C)(C(F)(F)F)C(F)(F)F [Example 14, 4,5-Bis(4-fluorophenyl)-N,1-dimethyl-α,α-di(trifluoromethyl)-1H-pyrrole-2-methanamine] | 1 | > 108 | – | –
Cc1c(C(N)(C(F)(F)F)C(F)(F)F)[nH]c(-c2ccc(F)cc2)c1-c1ccc(F)cc1 [Example 8] | 0.77 | > 108 | – | –
NC(c1cc(-c2ccc(F)cc2)c(-c2ccc(Br)cc2)[nH]1)(C(F)(F)F)C(F)(F)F [Example 6] | 3.4 | > 108 | – | –
NC(c1cc(-c2ccc(F)cc2)c(-c2ccc(F)cc2)n1Cc1ccccc1)(C(F)(F)F)C(F)(F)F [Example 13] | > 25 | > 108 | 24 | –
NC(c1cc(-c2ccc(F)cc2)c(-c2cccnc2)[nH]1)(C(F)(F)F)C(F)(F)F [Example 12] | 12.5 | > 108 | – | –
NC(c1cc(-c2ccc(F)cc2)c(-c2ccc(F)cc2)[nH]1)C(F)(F)F (stereo not drawn) [Example 2, 4,5-Bis(4-fluorophenyl)-α-(trifluoromethyl)-1H-pyrrole-2-methanamine] | > 25 | – | 29 | –
Cn1c(C(N)(C(F)(F)F)C(F)(F)F)cc(-c2ccc(F)cc2)c1-c1ccc(F)cc1 [Example 3] | 2.6 | > 108 | – | –
CNC(c1cc(-c2ccc(F)cc2)c(-c2ccc(F)cc2)[nH]1)(C(F)(F)F)C(F)(F)F [Example 5, 4,5-Bis(4-fluorophenyl)-N-methyl-α,α-di(trifluoromethyl)-1H-pyrrole-2-methanamine] | 0.8 | > 108 | – | –
NC(c1cc(-c2ccc(F)cc2)c(-c2ccc(F)cc2)[nH]1)(C(F)(F)F)C(F)(F)F [Example 1, 4,5-Bis(4-fluorophenyl)-α,α-bis(trifluoromethyl)-1H-pyrrole-2-methanamine] | 0.45 | 27 | – | –
Cc1ccc(-c2cc(C(N)(C(F)(F)F)C(F)(F)F)[nH]c2-c2ccc(C)cc2)cc1 [Example 7] | > 9 | > 108 | – | 45
NC(c1cc(-c2ccccc2)c(-c2ccccc2)[nH]1)(C(F)(F)F)C(F)(F)F [Example 11] | 20 | > 108 | – | –
CN(C)c1ccc(-c2[nH]c(C(N)(C(F)(F)F)C(F)(F)F)cc2-c2ccc(F)cc2)cc1 [Example 9] | 4.9 | > 108 | – | –
COc1ccc(-c2cc(C(N)(C(F)(F)F)C(F)(F)F)[nH]c2-c2ccc(OC)cc2)cc1 [Example 4] | 3.3 | 45 | – | –
NC(c1cc(-c2ccc(Cl)cc2)c(-c2ccc(Cl)cc2)[nH]1)(C(F)(F)F)C(F)(F)F [Example 10] | 4.4 | > 108 | – | –

From patent publication US4335136A, “Anti-inflammatory 4,5-diaryl-α-(polyfluoroalkyl)-1H-pyrrole-2-methanamines” (E. I. Du Pont de Nemours and Company, priority 1981, dated 1982)
